Test results reported in US11974572B2, “Fungicidal compositions” (SYNGENTA PARTICIPATIONS AG, priority 2017, dated 2024).

What was measured:
[1] = system: Puccinia recondita f. sp. tritici; assay: Example A1: Puccinia recondita f. sp. tritici / wheat / leaf disc preventative (brown rust); assay type: in vivo; conditions: foliar, 200 ppm in the applied formulation, wheat leaf segments, compared to untreated control leaf disks, read-out: disease control
Experimental: (§1) Leaf disks or leaf segments of various plant species are cut from plants grown in a greenhouse. The cut leaf disks or segments are placed in multiwell plates (24-well format) onto water agar. The leaf disks are sprayed with a test solution before (preventative) or after (curative) inoculation. Compounds to be tested are prepared as DMSO solutions (max. 10 mg/ml) which are diluted to the appropriate concentration with 0.025% Tween20 just before spraying. The inoculated leaf disks or segments are incubated under defined conditions (temperature, relative humidity, light, etc.) according to the respective test system. A single evaluation of disease level is carried out 3 to 14 days after inoculation, depending on the pathosystem. Percent disease control relative to the untreated check leaf disks or segments is then calculated.
Wheat leaf segments cv. Kanzler were placed on agar in multiwell plates (24-well format) and sprayed with the formulated test compound diluted in water. […] The inoculated leaf segments were incubated at 19° C. and 75% relative humidity (rh) under a light regime of 12 hours light/12 hours darkness in a climate cabinet and the activity of a compound was assessed as percent disease control compared to untreated when an appropriate level of disease damage appears in untreated check leaf segments (7 to 9 days after application). […]

[2] = system: Puccinia recondita f. sp. tritici; assay: Example A2: Puccinia recondita f. sp. tritici / wheat / leaf disc curative (brown rust); assay type: in vivo; conditions: foliar, 200 ppm in the applied formulation, wheat leaf segments, compared to untreated control leaf disks, read-out: disease control
Experimental: as §1
Wheat leaf segments cv. Kanzler are placed on agar in multiwell plates (24-well format). The leaf segments are then inoculated with a spore suspension of the fungus. […] The leaf segments were incubated at 19° C. and 75% relative humidity under a light regime of 12 hours light/12 hours darkness in a climate cabinet and the activity of a compound was assessed as percent disease control compared to untreated when an appropriate level of disease damage appears in untreated check leaf segments (6 to 8 days after application). […]

[3] = system: Glomerella lagenarium (Colletotrichum lagenarium); assay: Example A4: Glomerella lagenarium (Colletotrichum lagenarium) liquid culture / cucumber / preventative (anthracnose); assay type: cell-based; conditions: Colletotrichum orbiculare, 20 ppm in the applied formulation, compared to untreated control, read-out: disease control
Experimental: Mycelia fragments or conidia suspensions of a fungus prepared either freshly from liquid cultures of the fungus or from cryogenic storage, are directly mixed into nutrient broth. DMSO solutions of the test compound (max. 10 mg/ml) are diluted with 0.025% Tween20 by a factor of 50 and 10 μl of this solution is pipetted into a microtiter plate (96-well format). The nutrient broth containing the fungal spores/mycelia fragments is then added to give an end concentration of the tested compound. The test plates are incubated in the dark at 24° C. and 96% relative humidity. The inhibition of fungal growth is determined photometrically after 2 to 7 days, depending on the pathosystem, and percent antifungal activity relative to the untreated check is calculated.
Conidia of the fungus from cryogenic storage are directly mixed into nutrient broth (PDB—potato dextrose broth). After placing a (DMSO) solution of test compound into a microtiter plate (96-well format), the nutrient broth containing the fungal spores is added.
The following compounds at 20 ppm in the applied formulation give at least 80% disease control in this test when compared to untreated control under the same conditions, which show extensive disease development.

Phakopsora pachyrhizi = assay: Example A3: Phakopsora pachyrhizi / soybean / leaf disc preventative (Asian soybean rust); assay type: in vivo; conditions: foliar, 200 ppm in the applied formulation, soybean leaf disks, compared to untreated control leaf disks, read-out: disease control
Experimental: as §1
Soybean leaf disks are placed on water agar in multiwell plates (24-well format) and sprayed with the formulated test compound diluted in water. One day after application leaf discs are inoculated by spraying a spore suspension on the lower leaf surface. […] The activity of a compound is assessed as percent disease control compared to untreated when an appropriate level of disease damage appears in untreated check leaf disks (12 to 14 days after application). […]

melting point	Structure (SMILES)	pest or weed control at 200 ppm [1]	pest or weed control at 200 ppm [2]	inhibition of growth at 20 ppm [3]	pest or weed control at 200 ppm (Phakopsora pachyrhizi)
88.9 to 90.6 °C	C#CCNC(=O)N(Cc1ccc(-c2noc(C(F)(F)F)n2)cc1)OC [X.20, 1-methoxy-3-prop-2-ynyl-1-[[4-[5-(trifluoromethyl)-1,2,4-oxadiazol-3-yl]phenyl]methyl]urea]	–	–	–	–
92.6 to 94.3 °C	COCC(=O)N(Cc1ccc(-c2noc(C(F)(F)F)n2)cc1)CC(F)(F)F [X.09, 2-methoxy-N-(2,2,2-trifluoroethyl)-N-[[4-[5-(trifluoromethyl)-1,2,4-oxadiazol-3-yl]phenyl]methyl]acetamide]	–	–	–	–
–	CN(Cc1ccc(-c2noc(C(F)(F)F)n2)cc1)C(=O)NCC1CC1 [X.22, 3-(cyclopropylmethyl)-1-methyl-1-[[4-[5-(trifluoromethyl)-1,2,4-oxadiazol-3-yl]phenyl]methyl]urea]	≥ 80%	≥ 80%	≥ 80%	≥ 80%
–	CCN(Cc1ccc(-c2noc(C(F)(F)F)n2)cc1)C(=O)NCC(F)(F)F [X.23, 1-ethyl-3-(2,2,2-trifluoroethyl)-1-[[4-[5-(trifluoromethyl)-1,2,4-oxadiazol-3-yl]phenyl]methyl]urea]	≥ 80%	≥ 80%	≥ 80%	≥ 80%
106 to 107.3 °C	CON(Cc1ccc(-c2noc(C(F)(F)F)n2)cc1)C(=O)NC(C)C [X.19, 3-isopropyl-1-methoxy-1-[[4-[5-(trifluoromethyl)-1,2,4-oxadiazol-3-yl]phenyl]methyl]urea]	–	–	–	–
84 to 87 °C	CON(Cc1ccc(-c2noc(C(F)(F)F)n2)cc1)C(=O)NC1CC1 [X.15, 3-cyclopropyl-1-methoxy-1-[[4-[5-(trifluoromethyl)-1,2,4-oxadiazol-3-yl]phenyl]methyl]urea]	–	–	–	–
107 to 110 °C	CCONC(=O)N(Cc1ccc(-c2noc(C(F)(F)F)n2)cc1)OC [X.16, 3-ethoxy-1-methoxy-1-[[4-[5-(trifluoromethyl)-1,2,4-oxadiazol-3-yl]phenyl]methyl]urea]	–	–	–	–
64 to 70 °C	C=CCNC(=O)N(Cc1ccc(-c2noc(C(F)(F)F)n2)cc1)OC [X.17, 3-allyl-1-methoxy-1-[[4-[5-(trifluoromethyl)-1,2,4-oxadiazol-3-yl]phenyl]methyl]urea]	–	–	–	–
